Experimental data published in ChEMBL document CHEMBL1201862, “PubChem BioAssay data set” (2004).
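Dose response: 5 concentrations. Exposure: 48 h. Format: 96-well plates. Endpoint: linear interpolation; highest concentration if not reached. Abbreviation: GI50, concentration required for 50% inhibition of growth.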 Activity calls are given as the source filed them. Cut-off read from the data, not from the text of the source: active = GI50 up to about 1.1 µM and inactive = higher.

Columns and labels:
Assay in all cases: DTP human tumour cell line panel, 48 h
786-0 = system: 786-0
A549 = system: A549
ACHN = system: ACHN
CAKI-1 = system: CAKI-1
CCRF-CEM = system: CCRF-CEM
COLO 205 = system: COLO 205
DLD-1 = system: DLD-1
DMS-114 = system: DMS-114
DMS-273 = system: DMS-273
EKVX = system: EKVX
HCC 2998 = system: HCC 2998
HCT-116 = system: HCT-116
HCT-15 = system: HCT-15
HL-60 = system: HL-60
HOP-18 = system: HOP-18
HOP-62 = system: HOP-62
HOP-92 = system: HOP-92
HT-29 = system: HT-29
IGROV-1 = system: IGROV-1
K562 = system: K562
KM12 = system: KM12
LOX IMVI = system: LOX IMVI
LXFL 529 = system: LXFL 529
M19-MEL = system: M19-MEL
MOLT-4 = system: MOLT-4
Malme-3M = system: Malme-3M
NCI-H226 = system: NCI-H226
NCI-H23 = system: NCI-H23
NCI-H460 = system: NCI-H460
NCI-H522 = system: NCI-H522
OVCAR-3 = system: OVCAR-3
OVCAR-8 = system: OVCAR-8
RPMI-8226 = system: RPMI-8226
RXF 393 = system: RXF 393
SF-268 = system: SF-268
SF-295 = system: SF-295
SF-539 = system: SF-539
SK-MEL-28 = system: SK-MEL-28
SK-MEL-2 = system: SK-MEL-2
SK-MEL-5 = system: SK-MEL-5
SK-OV-3 = system: SK-OV-3
SN12C = system: SN12C
SNB-19 = system: SNB-19
SR = system: SR
SW-620 = system: SW-620
TK-10 = system: TK-10
UACC-257 = system: UACC-257
UACC-62 = system: UACC-62
XF498 = system: XF498
M14 = system: M14
OVCAR-4 = system: OVCAR-4
OVCAR-5 = system: OVCAR-5
SNB-75 = system: SNB-75
UO-31 = system: UO-31
U-251 = system: U-251
A498 = system: A498
KM-20L2 = system: KM-20L2
MCF7 = system: MCF7
NCI/ADR-RES = system: NCI/ADR-RES
SNB-78 = system: SNB-78

## O=c1c(-c2ccccc2)c2oc(c1-c1ccccc1)CS(=O)(=O)CCC2
786-0
  GI50: 19.8 µM (inactive)
A549
  GI50: 57.3 µM (inactive)
ACHN
  GI50: 29 µM (inactive)
CAKI-1
  GI50: 28.8 µM (inactive)
CCRF-CEM
  GI50: 23.8 µM (inactive)
COLO 205
  GI50: 21 µM (inactive)
DLD-1
  GI50: 21.6 µM (inactive)
DMS-114
  GI50: 39.5 µM (inactive)
DMS-273
  GI50: 22.5 µM (inactive)
EKVX
  GI50: > 100 µM (inactive)
HCC 2998
  GI50: > 10 µM (inactive)
HCT-116
  GI50: 12.7 µM (inactive)
HCT-15
  GI50: 15.6 µM
HL-60
  GI50: 25.6 µM (inactive)
HOP-18
  GI50: < 0.01 µM (active)
HOP-62
  GI50: 42.6 µM (inactive)
HOP-92
  GI50: > 100 µM (inactive)
HT-29
  GI50: 25.5 µM (inactive)
IGROV-1
  GI50: 45 µM (inactive)
K562
  GI50: 31.1 µM (inactive)
KM12
  GI50: 32.2 µM (inactive)
LOX IMVI
  GI50: 20.2 µM (inactive)
LXFL 529
  GI50: 17.7 µM (inactive)
M19-MEL
  GI50: 17 µM (inactive)
MOLT-4
  GI50: 24.2 µM (inactive)
Malme-3M
  GI50: 49.4 µM (inactive)
NCI-H226
  GI50: 18.5 µM (inactive)
NCI-H23
  GI50: 17.6 µM (inactive)
NCI-H460
  GI50: 31.6 µM (inactive)
NCI-H522
  GI50: 9.98 µM (inactive)
OVCAR-3
  GI50: 22.6 µM (inactive)
OVCAR-8
  GI50: 36.8 µM (inactive)
RPMI-8226
  GI50: 26.9 µM (inactive)
RXF 393
  GI50: 13.8 µM (inactive)
SF-268
  GI50: 21.9 µM (inactive)
SF-295
  GI50: > 100 µM (inactive)
SF-539
  GI50: 18.2 µM (inactive)
SK-MEL-28
  GI50: 17.5 µM (inactive)
SK-MEL-2
  GI50: > 100 µM (inactive)
SK-MEL-5
  GI50: 27.7 µM (inactive)
SK-OV-3
  GI50: > 100 µM (inactive)
SN12C
  GI50: 16.9 µM (inactive)
SNB-19
  GI50: > 100 µM (inactive)
SR
  GI50: 23.3 µM (inactive)
SW-620
  GI50: 32.7 µM (inactive)
TK-10
  GI50: 37.5 µM (inactive)
UACC-257
  GI50: 28.8 µM (inactive)
UACC-62
  GI50: 21.5 µM (inactive)
XF498
  GI50: 5.97 µM (inactive)

## CC1=NN(C(=O)Cc2ccccc2)C(=O)/C1=C/c1c(O)ccc2ccccc12
786-0
  GI50: 83.9 µM (inactive)
A549
  GI50: > 100 µM (inactive)
ACHN
  GI50: 28.1 µM (inactive)
CAKI-1
  GI50: 92.5 µM (inactive)
CCRF-CEM
  GI50: 23.3 µM (inactive)
COLO 205
  GI50: > 100 µM (inactive)
DLD-1
  GI50: 10 µM (inactive)
DMS-114
  GI50: 45.9 µM (inactive)
DMS-273
  GI50: 50.5 µM (inactive)
EKVX
  GI50: > 100 µM (inactive)
HCC 2998
  GI50: > 100 µM (inactive)
HCT-116
  GI50: 49.1 µM (inactive)
HCT-15
  GI50: 2.21 µM
HL-60
  GI50: 49.2 µM (inactive)
HOP-18
  GI50: 30.3 µM (inactive)
HOP-62
  GI50: > 100 µM (inactive)
HT-29
  GI50: 57.3 µM (inactive)
K562
  GI50: 40.6 µM (inactive)
KM12
  GI50: 68.5 µM (inactive)
LOX IMVI
  GI50: 27.5 µM (inactive)
M14
  GI50: 10 µM (inactive)
M19-MEL
  GI50: 33 µM (inactive)
MOLT-4
  GI50: 22.8 µM (inactive)
Malme-3M
  GI50: 15.8 µM (inactive)
NCI-H226
  GI50: 27 µM (inactive)
NCI-H23
  GI50: 61.7 µM (inactive)
NCI-H460
  GI50: 69 µM (inactive)
NCI-H522
  GI50: 67.9 µM (inactive)
OVCAR-3
  GI50: 48.6 µM (inactive)
OVCAR-4
  GI50: 78.9 µM (inactive)
OVCAR-5
  GI50: 35.8 µM (inactive)
OVCAR-8
  GI50: 37.2 µM (inactive)
RPMI-8226
  GI50: 33.2 µM (inactive)
SF-268
  GI50: 55.5 µM (inactive)
SF-295
  GI50: 34.1 µM (inactive)
SF-539
  GI50: 29.2 µM (inactive)
SK-MEL-28
  GI50: 40.7 µM (inactive)
SK-MEL-2
  GI50: 1.7 µM (inactive)
SK-MEL-5
  GI50: 96.6 µM (inactive)
SN12C
  GI50: 34.1 µM (inactive)
SNB-19
  GI50: 50.8 µM (inactive)
SNB-75
  GI50: 29.6 µM (inactive)
SR
  GI50: 45.7 µM (inactive)
SW-620
  GI50: 39.4 µM (inactive)
TK-10
  GI50: 56.9 µM (inactive)
UACC-257
  GI50: 37.5 µM (inactive)
UO-31
  GI50: 22.2 µM (inactive)
XF498
  GI50: 1.68 µM (inactive)

## N/C=N/S(=O)(=O)c1ccc(NC(=O)COC(=O)c2cccc3c(=O)c4ccccc4[nH]c23)cc1
786-0
  GI50: > 100 µM (inactive)
A549
  GI50: > 100 µM (inactive)
ACHN
  GI50: > 100 µM (inactive)
CCRF-CEM
  GI50: > 100 µM (inactive)
COLO 205
  GI50: > 100 µM (inactive)
DLD-1
  GI50: > 100 µM (inactive)
DMS-114
  GI50: > 100 µM (inactive)
DMS-273
  GI50: > 100 µM (inactive)
EKVX
  GI50: > 100 µM (inactive)
HCT-116
  GI50: > 100 µM (inactive)
HCT-15
  GI50: > 100 µM
HL-60
  GI50: > 100 µM (inactive)
HOP-18
  GI50: > 100 µM (inactive)
HOP-62
  GI50: > 100 µM (inactive)
HT-29
  GI50: > 100 µM (inactive)
IGROV-1
  GI50: > 100 µM (inactive)
K562
  GI50: > 100 µM (inactive)
KM12
  GI50: > 100 µM (inactive)
LOX IMVI
  GI50: > 100 µM (inactive)
M14
  GI50: 67.8 µM (inactive)
M19-MEL
  GI50: > 100 µM (inactive)
MOLT-4
  GI50: > 100 µM (inactive)
Malme-3M
  GI50: > 100 µM (inactive)
NCI-H226
  GI50: > 100 µM (inactive)
NCI-H23
  GI50: > 100 µM (inactive)
NCI-H460
  GI50: > 100 µM (inactive)
NCI-H522
  GI50: > 100 µM (inactive)
OVCAR-3
  GI50: > 100 µM (inactive)
OVCAR-8
  GI50: > 100 µM (inactive)
RPMI-8226
  GI50: > 100 µM (inactive)
RXF 393
  GI50: > 100 µM (inactive)
SF-295
  GI50: > 100 µM (inactive)
SF-539
  GI50: > 100 µM (inactive)
SK-MEL-28
  GI50: > 100 µM (inactive)
SK-MEL-5
  GI50: > 100 µM (inactive)
SK-OV-3
  GI50: > 100 µM (inactive)
SN12C
  GI50: > 100 µM (inactive)
SNB-19
  GI50: > 100 µM (inactive)
SNB-75
  GI50: > 100 µM (inactive)
SW-620
  GI50: > 100 µM (inactive)
TK-10
  GI50: > 100 µM (inactive)
U-251
  GI50: > 100 µM (inactive)
UACC-257
  GI50: > 100 µM (inactive)
UACC-62
  GI50: > 100 µM (inactive)
UO-31
  GI50: > 100 µM (inactive)
XF498
  GI50: > 100 µM (inactive)

## O=C(O)c1ccc(Nc2c3ccccc3nc3ccccc23)cc1
A498
  GI50: 52.6 µM (inactive)
A549
  GI50: 41.2 µM (inactive)
CAKI-1
  GI50: 49.9 µM (inactive)
CCRF-CEM
  GI50: 26.9 µM (inactive)
COLO 205
  GI50: > 100 µM (inactive)
DMS-114
  GI50: > 100 µM (inactive)
DMS-273
  GI50: 38.9 µM (inactive)
EKVX
  GI50: > 100 µM (inactive)
HCC 2998
  GI50: > 100 µM (inactive)
HCT-116
  GI50: 45 µM (inactive)
HCT-15
  GI50: 64.4 µM
HL-60
  GI50: 47.9 µM (inactive)
HOP-18
  GI50: > 100 µM (inactive)
HOP-62
  GI50: > 67.3 µM (inactive)
HOP-92
  GI50: > 65 µM (inactive)
HT-29
  GI50: 97.9 µM (inactive)
IGROV-1
  GI50: > 100 µM (inactive)
K562
  GI50: 76.2 µM (inactive)
KM-20L2
  GI50: > 100 µM (inactive)
KM12
  GI50: > 100 µM (inactive)
LOX IMVI
  GI50: 60.8 µM (inactive)
M19-MEL
  GI50: 66.7 µM (inactive)
MCF7
  GI50: 71.1 µM (inactive)
MOLT-4
  GI50: 23.1 µM (inactive)
Malme-3M
  GI50: 43.3 µM (inactive)
NCI-H226
  GI50: 31.8 µM (inactive)
NCI-H23
  GI50: > 72.3 µM (inactive)
NCI-H460
  GI50: 22.6 µM (inactive)
NCI-H522
  GI50: > 75.7 µM (inactive)
NCI/ADR-RES
  GI50: > 76 µM (inactive)
OVCAR-3
  GI50: > 100 µM (inactive)
OVCAR-4
  GI50: > 100 µM (inactive)
OVCAR-5
  GI50: > 100 µM (inactive)
OVCAR-8
  GI50: 64 µM (inactive)
RPMI-8226
  GI50: 54.8 µM (inactive)
RXF 393
  GI50: > 100 µM (inactive)
SF-268
  GI50: 67.9 µM (inactive)
SF-295
  GI50: 45.5 µM (inactive)
SF-539
  GI50: > 78.2 µM (inactive)
SK-MEL-28
  GI50: > 100 µM (inactive)
SK-MEL-2
  GI50: > 100 µM (inactive)
SK-MEL-5
  GI50: > 68.1 µM (inactive)
SK-OV-3
  GI50: > 100 µM (inactive)
SN12C
  GI50: 64.7 µM (inactive)
SNB-19
  GI50: > 86.7 µM (inactive)
SNB-75
  GI50: > 83.9 µM (inactive)
SNB-78
  GI50: 30.8 µM (inactive)
SW-620
  GI50: 59.7 µM (inactive)
U-251
  GI50: 51.6 µM (inactive)
UACC-257
  GI50: > 100 µM (inactive)
UACC-62
  GI50: 47.4 µM (inactive)
UO-31
  GI50: 54.6 µM (inactive)
